Assay results: the NIST ThermoML archive (doi:10.1021/je800243y)
± gives the expanded uncertainty stated by the source.

test: molar heat capacity at constant pressure; details: 298.15 K; 101.33 kPa; Crystal; Large sample (1 g) DSC

Row | SMILES | molar heat capacity at constant pressure
1 | O=c1[nH]c(=O)n([C@H]2C[C@H](O)[C@@H](CO)O2)cc1I [5-iodo-2'-deoxyuridine] | 285.34 ± 5.7 J/K/mol
2 | O=c1[nH]c(=O)n([C@@H]2O[C@H](CO)[C@@H](O)[C@H]2O)cc1Br [5-bromouridine] | 305.69 ± 6.1 J/K/mol
3 | Cc1cn([C@H]2C[C@H](O)[C@@H](CO)O2)c(=O)[nH]c1=O [thymidine] | 276.7 ± 5.5 J/K/mol
4 | O=c1[nH]c(=O)n([C@@H]2O[C@H](CO)[C@@H](O)[C@H]2O)cc1I [2,4-dihdroxy-5-iodo-1-β-D-ribofurnosylpyrimidine] | 337.43 ± 6.8 J/K/mol

The remaining lines, values ahead:

Row | molar heat capacity at constant pressure | SMILES
5 | 263.41 ± 5.3 J/K/mol | O=c1ccn([C@H]2C[C@H](O)[C@@H](CO)O2)c(=O)[nH]1 [2'-deoxyuridine]
6 | 260.65 ± 5.2 J/K/mol | O=c1[nH]c(=O)n([C@H]2C[C@H](O)[C@@H](CO)O2)cc1Br [5-bromo-2'-deoxyuridine]

same assay, conditions: 303.15 K; 101.33 kPa; Crystal; Large sample (1 g) DSC

Row | SMILES | molar heat capacity at constant pressure
7 | O=c1[nH]c(=O)n([C@H]2C[C@H](O)[C@@H](CO)O2)cc1I [5-iodo-2'-deoxyuridine] | 287.61 ± 5.8 J/K/mol
8 | O=c1[nH]c(=O)n([C@@H]2O[C@H](CO)[C@@H](O)[C@H]2O)cc1Br [5-bromouridine] | 306.16 ± 6.1 J/K/mol
9 | Cc1cn([C@H]2C[C@H](O)[C@@H](CO)O2)c(=O)[nH]c1=O [thymidine] | 278.84 ± 5.6 J/K/mol
10 | O=c1[nH]c(=O)n([C@@H]2O[C@H](CO)[C@@H](O)[C@H]2O)cc1I [2,4-dihdroxy-5-iodo-1-β-D-ribofurnosylpyrimidine] | 338.14 ± 6.8 J/K/mol

Continued, values first:

Row | molar heat capacity at constant pressure | SMILES
11 | 266.16 ± 5.3 J/K/mol | O=c1ccn([C@H]2C[C@H](O)[C@@H](CO)O2)c(=O)[nH]1 [2'-deoxyuridine]
12 | 263.37 ± 5.3 J/K/mol | O=c1[nH]c(=O)n([C@H]2C[C@H](O)[C@@H](CO)O2)cc1Br [5-bromo-2'-deoxyuridine]

same assay, conditions: 308.15 K; 101.33 kPa; Crystal; Large sample (1 g) DSC

Row | SMILES | molar heat capacity at constant pressure
13 | O=c1[nH]c(=O)n([C@H]2C[C@H](O)[C@@H](CO)O2)cc1I [5-iodo-2'-deoxyuridine] | 289.88 ± 5.8 J/K/mol
14 | O=c1[nH]c(=O)n([C@@H]2O[C@H](CO)[C@@H](O)[C@H]2O)cc1Br [5-bromouridine] | 306.64 ± 6.1 J/K/mol
15 | Cc1cn([C@H]2C[C@H](O)[C@@H](CO)O2)c(=O)[nH]c1=O [thymidine] | 280.97 ± 5.6 J/K/mol
16 | O=c1[nH]c(=O)n([C@@H]2O[C@H](CO)[C@@H](O)[C@H]2O)cc1I [2,4-dihdroxy-5-iodo-1-β-D-ribofurnosylpyrimidine] | 338.86 ± 6.8 J/K/mol

The next lines start with the values.

Row | molar heat capacity at constant pressure | SMILES
17 | 268.9 ± 5.4 J/K/mol | O=c1ccn([C@H]2C[C@H](O)[C@@H](CO)O2)c(=O)[nH]1 [2'-deoxyuridine]
18 | 266.08 ± 5.3 J/K/mol | O=c1[nH]c(=O)n([C@H]2C[C@H](O)[C@@H](CO)O2)cc1Br [5-bromo-2'-deoxyuridine]

same assay, conditions: 313.15 K; 101.33 kPa; Crystal; Large sample (1 g) DSC

Row | SMILES | molar heat capacity at constant pressure
19 | O=c1[nH]c(=O)n([C@H]2C[C@H](O)[C@@H](CO)O2)cc1I [5-iodo-2'-deoxyuridine] | 292.15 ± 5.8 J/K/mol
20 | O=c1[nH]c(=O)n([C@@H]2O[C@H](CO)[C@@H](O)[C@H]2O)cc1Br [5-bromouridine] | 307.11 ± 6.1 J/K/mol
21 | Cc1cn([C@H]2C[C@H](O)[C@@H](CO)O2)c(=O)[nH]c1=O [thymidine] | 283.12 ± 5.7 J/K/mol
22 | O=c1[nH]c(=O)n([C@@H]2O[C@H](CO)[C@@H](O)[C@H]2O)cc1I [2,4-dihdroxy-5-iodo-1-β-D-ribofurnosylpyrimidine] | 339.57 ± 6.8 J/K/mol

The remaining lines, values ahead:

Row | molar heat capacity at constant pressure | SMILES
23 | 271.65 ± 5.4 J/K/mol | O=c1ccn([C@H]2C[C@H](O)[C@@H](CO)O2)c(=O)[nH]1 [2'-deoxyuridine]
24 | 268.8 ± 5.4 J/K/mol | O=c1[nH]c(=O)n([C@H]2C[C@H](O)[C@@H](CO)O2)cc1Br [5-bromo-2'-deoxyuridine]

same assay, conditions: 318.15 K; 101.33 kPa; Crystal; Large sample (1 g) DSC

Row | SMILES | molar heat capacity at constant pressure
25 | O=c1[nH]c(=O)n([C@H]2C[C@H](O)[C@@H](CO)O2)cc1I [5-iodo-2'-deoxyuridine] | 294.43 ± 5.9 J/K/mol
26 | O=c1[nH]c(=O)n([C@@H]2O[C@H](CO)[C@@H](O)[C@H]2O)cc1Br [5-bromouridine] | 307.58 ± 6.2 J/K/mol
27 | Cc1cn([C@H]2C[C@H](O)[C@@H](CO)O2)c(=O)[nH]c1=O [thymidine] | 285.25 ± 5.7 J/K/mol
28 | O=c1[nH]c(=O)n([C@@H]2O[C@H](CO)[C@@H](O)[C@H]2O)cc1I [2,4-dihdroxy-5-iodo-1-β-D-ribofurnosylpyrimidine] | 340.29 ± 6.8 J/K/mol

Further lines, results first:

Row | molar heat capacity at constant pressure | SMILES
29 | 274.39 ± 5.5 J/K/mol | O=c1ccn([C@H]2C[C@H](O)[C@@H](CO)O2)c(=O)[nH]1 [2'-deoxyuridine]
30 | 271.51 ± 5.4 J/K/mol | O=c1[nH]c(=O)n([C@H]2C[C@H](O)[C@@H](CO)O2)cc1Br [5-bromo-2'-deoxyuridine]

same assay, conditions: 323.15 K; 101.33 kPa; Crystal; Large sample (1 g) DSC

Row | SMILES | molar heat capacity at constant pressure
31 | O=c1[nH]c(=O)n([C@H]2C[C@H](O)[C@@H](CO)O2)cc1I [5-iodo-2'-deoxyuridine] | 296.69 ± 5.9 J/K/mol
32 | O=c1[nH]c(=O)n([C@@H]2O[C@H](CO)[C@@H](O)[C@H]2O)cc1Br [5-bromouridine] | 308.05 ± 6.2 J/K/mol
33 | Cc1cn([C@H]2C[C@H](O)[C@@H](CO)O2)c(=O)[nH]c1=O [thymidine] | 287.4 ± 5.8 J/K/mol
34 | O=c1[nH]c(=O)n([C@@H]2O[C@H](CO)[C@@H](O)[C@H]2O)cc1I [2,4-dihdroxy-5-iodo-1-β-D-ribofurnosylpyrimidine] | 341 ± 6.8 J/K/mol

Results, then the compound that gave them:

Row | molar heat capacity at constant pressure | SMILES
35 | 277.14 ± 5.5 J/K/mol | O=c1ccn([C@H]2C[C@H](O)[C@@H](CO)O2)c(=O)[nH]1 [2'-deoxyuridine]
36 | 274.23 ± 5.5 J/K/mol | O=c1[nH]c(=O)n([C@H]2C[C@H](O)[C@@H](CO)O2)cc1Br [5-bromo-2'-deoxyuridine]

same assay, conditions: 328.15 K; 101.33 kPa; Crystal; Large sample (1 g) DSC

Row | SMILES | molar heat capacity at constant pressure
37 | O=c1[nH]c(=O)n([C@H]2C[C@H](O)[C@@H](CO)O2)cc1I [5-iodo-2'-deoxyuridine] | 298.96 ± 6 J/K/mol
38 | O=c1[nH]c(=O)n([C@@H]2O[C@H](CO)[C@@H](O)[C@H]2O)cc1Br [5-bromouridine] | 308.52 ± 6.2 J/K/mol
39 | Cc1cn([C@H]2C[C@H](O)[C@@H](CO)O2)c(=O)[nH]c1=O [thymidine] | 289.53 ± 5.8 J/K/mol
40 | O=c1[nH]c(=O)n([C@@H]2O[C@H](CO)[C@@H](O)[C@H]2O)cc1I [2,4-dihdroxy-5-iodo-1-β-D-ribofurnosylpyrimidine] | 341.72 ± 6.8 J/K/mol

Continued, values first:

Row | molar heat capacity at constant pressure | SMILES
41 | 279.89 ± 5.6 J/K/mol | O=c1ccn([C@H]2C[C@H](O)[C@@H](CO)O2)c(=O)[nH]1 [2'-deoxyuridine]
42 | 276.94 ± 5.5 J/K/mol | O=c1[nH]c(=O)n([C@H]2C[C@H](O)[C@@H](CO)O2)cc1Br [5-bromo-2'-deoxyuridine]

same assay, conditions: 333.15 K; 101.33 kPa; Crystal; Large sample (1 g) DSC

Row | molar heat capacity at constant pressure | SMILES
43 | 282.63 ± 5.7 J/K/mol | O=c1ccn([C@H]2C[C@H](O)[C@@H](CO)O2)c(=O)[nH]1 [2'-deoxyuridine]
44 | 301.22 ± 6 J/K/mol | O=c1[nH]c(=O)n([C@H]2C[C@H](O)[C@@H](CO)O2)cc1I [5-iodo-2'-deoxyuridine]
45 | 308.99 ± 6.2 J/K/mol | O=c1[nH]c(=O)n([C@@H]2O[C@H](CO)[C@@H](O)[C@H]2O)cc1Br [5-bromouridine]
